Patent publication US12564553B2, “Suspension containing heterocyclidene acetamide derivative” (SENJU PHARMACEUTICAL CO., LTD., priority 2021, dated 2026)

Experiment: Stability of Compound (1) in nonionic surfactant solution (content retention rate, liquid chromatography)
Assay type: physicochemical
Details: aqueous solution in glass ampoule stored at 25° C. for 1 month (1M)
Protocol: As used herein, the term “stability” refers to the degree to which the content of (E)-2-(7-trifluoromethylchroman-4-ylidene)-N-(7-hydroxy-5,6,7,8-tetrahydronaphthalen-1-yl)acetamide, or a pharmaceutically acceptable salt or solvate thereof, dissolved and/or suspended in an aqueous suspension is maintained without being altered by decomposition or the like after storage for a certain period of time. In addition, as used herein, the “stability” is evaluated by the content maintenance ratio, which is the ratio of the content of (E)-2-(7-trifluoromethylchroman-4-ylidene)-N-(7-hydroxy-5,6,7,8-tetrahydronaphthalen-1-yl)acetamide, or a pharmaceutically acceptable salt or solvate thereof, in the aqueous suspension agent stored for a certain period after preparation to the content of (E)-2-(7-trifluoromethylchroman-4-ylidene)-N-(7-hydroxy-5,6,7,8-tetrahydronaphthalen-1-yl)acetamide, or a pharmaceutically acceptable salt or solvate thereof, in the aqueous suspension agent immediately after preparation. Typically, this evaluation is determined by evaluating the content retention rate of (E)-2-(7-trifluoromethylchroman-4-ylidene)-N-(7-hydroxy-5,6,7,8-tetrahydronaphthalen-1-yl)acetamide, or a pharmaceutically acceptable salt or solvate thereof, dissolved in the aqueous suspension agent. […]

## O=C(/C=C1\CCOc2cc(C(F)(F)F)ccc21)Nc1cccc2c1C[C@H](O)CC2 [Compound (1), (E)-2-(7-trifluoromethylchroman-4-ylidene)-N-((7R)-7-hydroxy-5,6,7,8-tetrahydronaphthalen-1-yl)acetamide]
  content retention rate (to display ratio %): 100%
